Experimental data from US7273856B2, “Linear basic compounds having NK-2 antagonist activity and formulations thereof” (Menarini Ricerche S.P.A., priority 2001, dated 2007).
Counter-ions that a name gives are not always drawn.

target: T1, human NK-2 receptor (Homo sapiens, UniProt P21452); assay: binding test, affinity for the human NK-2 receptor, competition with [125I]NKA on transfected CHO cell membranes; conditions: not given
T1 construct: expressed in transfected cells; host or cells: CHO (Chinese hamster ovary) cells, membranes
T1 sequence (P21452 1-398): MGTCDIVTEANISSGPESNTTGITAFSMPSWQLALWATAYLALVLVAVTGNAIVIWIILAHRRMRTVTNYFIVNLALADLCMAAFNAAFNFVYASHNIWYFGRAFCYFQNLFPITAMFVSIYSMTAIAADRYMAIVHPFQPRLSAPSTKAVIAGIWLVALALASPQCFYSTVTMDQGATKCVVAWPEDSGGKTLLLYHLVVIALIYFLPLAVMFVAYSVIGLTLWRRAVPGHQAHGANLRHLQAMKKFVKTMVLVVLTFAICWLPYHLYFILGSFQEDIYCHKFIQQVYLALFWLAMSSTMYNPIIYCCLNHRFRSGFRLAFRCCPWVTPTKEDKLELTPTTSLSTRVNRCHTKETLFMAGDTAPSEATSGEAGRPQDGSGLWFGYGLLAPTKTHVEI
Procedure: The evaluation of the antagonist activity on NK-2 receptors has been assessed by binding and functional tests according to that already described in literature in relation to NK-2 antagonists.
The test substances have been tested within a concentration range from 0.01 nM to 10 nM. At the end of the incubation time (30 min, 20° C.) the samples have been filtered and radioactivity has been determined using a gamma-counter.

Structure (SMILES) | pKi
N[C@H]1CCCC[C@@H]1NC(=O)[C@@H]1CC[C@H](NC(=O)[C@@H](Cc2ccccc2)NC(=O)C2(NC(=O)c3cc4ccccc4o3)CCCC2)C1.O=C(O)C(F)(F)F [Example 6] | 9.7

same assay, conditions: CHO cell membranes transfected with NK-2 receptor of human ileum; [125I]NKA 100 pM; 30 min, 20° C.

Ki [nM] | Structure (SMILES) | pKi
0.126 | Cc1ccc(C=CC(=O)NC2(C(=O)NC(Cc3ccccc3)C(=O)NC3CCC(CN4CCOCC4)C3)CCc3ccccc32)cc1 (mixture of isomers) [Example 7, N^α[N^α(4(methyl)cinnamoyl)-(R,S)1-aminoindane-1-carboxy]-D-phenylalanine amide-N-[(1S,3R)-3-(morpholin-4-ylmethyl)cyclopentyl]] | –
– | NC1CCCCC1NC(=O)[C@@H]1C[C@@H](NC(=O)[C@@H](Cc2ccccc2)NC(=O)C2(NC(=O)c3cc4ccccc4s3)CCCC2)CN1 (relative stereo) [Example 36] | 10.6
0.158 | NC1CCCCC1NC(=O)C1CCC(NC(=O)C(Cc2ccccc2)NC(=O)C2(NC(=O)c3cc4ccccc4s3)CCCC2)C1 (single isomer, unassigned) [Example 2] | –
0.251 | NC1CCCCC1NC(=O)C1CCCC(NC(=O)C(Cc2ccccc2)NC(=O)C2(NC(=O)c3cc4ccccc4s3)CCCCC2)C1 (single isomer, unassigned) [Example 21] | –
0.251 | NC1CCCCC1NC(=O)C1CCC(NC(=O)C(Cc2ccccc2)NC(=O)C2(NC(=O)c3cc4ccccc4s3)CCCCC2)C1 (single isomer, unassigned) [Example 25] | –
0.0501 | NC1CCCCC1NC(=O)C1CCCC(NC(=O)C(Cc2ccccc2)NC(=O)C2(NC(=O)c3cc4ccccc4s3)CCCCC2)C1 (single isomer, unassigned) [Example 28] | –
0.0126 | NC1CCCCC1NC(=O)C1CCC(NC(=O)C(Cc2ccccc2)NC(=O)C2(NC(=O)c3cc4ccccc4s3)CCCC2)C1 (single isomer, unassigned) [Example 37] | –
1.26 | NC1CCCCC1NC(=O)C1CCC(NC(=O)C(Cc2ccccc2)NC(=O)C2(NC(=O)c3cc4ccccc4s3)CCCCC2)C1 (single isomer, unassigned) [Example 40] | –
– | NCCCCCNC(=O)C1CCCC(NC(=O)[C@@H](Cc2ccccc2)NC(=O)C2(NC(=O)c3cc4ccccc4s3)CCCCC2)C1.O=C(O)C(F)(F)F (stereo in doubt) [Example 22, N^γ{N^α[N^α(benzo[b]thiophen-2-ylcarbonyl)-1-aminocyclohexan-1-carboxy]-D-phenylalanyl}-3-cis-aminocyclohexan-1-carboxylic-acid-N-(5-aminopentyl)-amide trifluoroacetate salt] | 9.2
– | N[C@H]1CCCC[C@@H]1NC(=O)[C@@H]1CC[C@H](NC(=O)[C@@H](Cc2ccccc2)NC(=O)C2(NC(=O)c3ccc(-c4ccccc4)cc3)CCCC2)C1.O=C(O)C(F)(F)F [Example 3, N^γ{N^α[N^α(biphen-4-ylcarboxy)-1-aminocyclopentan-1-carboxy]-D-phenylalanyl}-(1R,3S)-3-aminocyclopentane-1-carboxylic-acid-N-((1S,2S)-2-aminocyclohexyl)amide trifluoroacetate salt] | 9.6
– | Cn1c(C(=O)NC2(C(=O)N[C@H](Cc3ccccc3)C(=O)N[C@H]3CC[C@@H](C(=O)N[C@H]4CCCC[C@@H]4N)C3)CCCC2)cc2ccccc21.O=C(O)C(F)(F)F [Example 4, N^γ{N^α[N^α(N-(methyl)indol-2-ylcarboxy)-1-aminocyclopentan-1-carboxy]-D-phenylalanyl}-(1R,3S)-3-aminocyclopentane-1-carboxylic-acid-N-((1S,2S)-2-aminocyclohexyl) amide trifluoroacetate salt] | 9.8
– | Cc1ccc(C=CC(=O)NC2(C(=O)N[C@H](Cc3ccccc3)C(=O)N[C@H]3CC[C@@H](C(=O)N[C@H]4CCCC[C@@H]4N)C3)CCCC2)cc1.O=C(O)C(F)(F)F [Example 5, N^γ{N^α[N^α[4-(methyl)cynnamoyl]-1-aminocyclopentan-1-carboxy]-D-phenylalanyl}-(1R,3S)-3-aminocyclopentane-1-carboxylic-acid-N-((1S,2S)-2-aminocyclohexyl)amide trifluoroacetate salt] | 9.7
1.58 | Cc1ccc(C[C@@H](NC(=O)C2(NC(=O)c3cc4ccccc4s3)CCCC2)C(=O)N[C@H]2CC[C@@H](C(=O)N[C@H]3CCCC[C@@H]3N(C)C)C2)cc1 [Example 9, N^γ{N^α[N^α(benzo[b]thiophen-2-ylcarbonyl)-1-aminocyclopentan-1-carboxy]-D-4-methyl-phenylalanyl}-(1R,3S)-3-aminocyclopentane-1-carboxylic-acid-N-(1S,2S)-2-dimethyl aminocyclohexyl)amide hydrochloride salt] | –
0.501 | Cc1ccc(C=CC(=O)NC2(C(=O)NC(Cc3ccccc3)C(=O)NC3CCC(C(=O)NC4CCCCC4N(C)C)C3)CCCC2)cc1 [Example 10, N^γ{N^α[N^α(4-methyl-cinnamoyl)-1-aminocyclopentan-1-carboxy]-D-phenylalanyl}-(1R,3S)-3-aminocyclopentane-1-carboxylic-acid-N-((1S,2S)-2-dimethylaminocyclohexyl)amide hydrochloride salt] | –
2 | CN(C)[C@H]1CCCC[C@@H]1NC(=O)[C@@H]1CC[C@H](NC(=O)[C@@H](Cc2ccccc2)NC(=O)C2(NC(=O)c3cc4ccccc4o3)CCCC2)C1 [Example 11, N^γ{N^α[N^α(benzofuran-2-ylcarboxy)-1-aminocyclopentan-1-carboxy]-D-phenylalanyl}-(1R,3S)-3-aminocyclopentane-1-carboxylic-acid-N-((1S,2S)-2-dimethylaminocyclohexyl)amide hydrochloride salt] | –
0.316 | CN(C)[C@H]1CCCC[C@@H]1NC(=O)[C@@H]1CC[C@H](NC(=O)[C@@H](Cc2ccccc2)NC(=O)C2(NC(=O)c3ccc(-c4ccccc4)cc3)CCCC2)C1 [Example 12, N^γ{N^α[N^α(biphen-4-ylcarbonyl)-1-aminocyclopentan-1-carboxy]-D-phenylalanyl}-(1R,3S)-3-aminocyclopentane-1-carboxylic-acid-N-((1S,2S)-2-dimethylaminocyclohexyl)amide hydrochloride salt] | –
1 | CN(C)[C@H]1CCCC[C@@H]1NC(=O)[C@@H]1CC[C@H](NC(=O)[C@@H](Cc2ccccc2)NC(=O)C2(NC(=O)c3cc4ccccc4n3C)CCCC2)C1 [Example 13, N^γ{N^α[N^α((methyl)indol-2-ylcarboxy)-1-aminocyclopentan-1-carboxy]-D-phenylalanyl}-(1R,3S)-3-aminocyclopentane-1-carboxylic-acid-N-((1S,2S)-2-dimethylaminocyclohexyl)amide hydrochloride salt] | –
– | CC[C@@](C)(NC(=O)c1cc2ccccc2s1)C(=O)N[C@H](Cc1ccccc1)C(=O)N[C@H]1CC[C@@H](C(=O)N[C@H]2CCCC[C@@H]2N)C1.O=C(O)C(F)(F)F [Example 14, N^γ{N^α[N^α(benzo[b]thiophen-2-ylcarbonyl)-(R)-α-methyl-α-ethylglycyl]-D-phenylalanyl}-(1R,3S)3-amino cyclopentane-1-carboxylic-acid-N-((1S,2S)-2-aminocyclohexyl) amide trifluoroacetate salt] | 9.9
– | CC[C@@](C)(NC(=O)C=Cc1ccc(C)cc1)C(=O)N[C@H](Cc1ccccc1)C(=O)N[C@H]1CC[C@@H](C(=O)N[C@H]2CCCC[C@@H]2N)C1.O=C(O)C(F)(F)F [Example 15, N^γ{N^α[N^α(4-methylcinnamoyl)-(R)-α-methyl-α-ethylglycyl]-D-phenylalanyl}-(1R,3S)-3-amino cyclopentane-1-carboxylic-acid-N-((1S,2S)-2-aminocyclohexyl) amide trifluoroacetate salt] | 10.0
0.501 | Cc1ccc(C[C@@H](NC(=O)C2(NC(=O)c3ccc(-c4ccccc4)cc3)CCCC2)C(=O)N[C@H]2CC[C@@H](C(=O)N[C@H]3CCCC[C@@H]3N)C2)cc1 [Example 16, N^γ{N^α[N^α(biphenyl-4-carboxy)-1-aminocyclopentan-1-carboxy]-R-3(4(methyl)phenyl)alanyl}-(1R,3S)-3-aminocyclopentane-1-carboxylic-acid-N-((1S,2S)-2-aminocyclohexyl) amide hydrochloride salt] | –
2.51 | Cc1ccc(C[C@@H](NC(=O)C2(NC(=O)c3cc4ccccc4n3C)CCCC2)C(=O)N[C@H]2CC[C@@H](C(=O)N[C@H]3CCCC[C@@H]3N)C2)cc1 [Example 17, N^γ{N^α[N^α(N-(methyl)indol-2-ylcarboxy)-1-aminocyclopentan-1-carboxy]-R-3-(4-methyl)phenyl)alanyl}-(1R,3S)-3-aminocyclopentane-1-carboxylic-acid-N-((1S,2S)-2-aminocyclohexyl)amide hydrochloride salt] | –
0.794 | Cc1ccc(C=CC(=O)NC2(C(=O)NC(Cc3ccc(C)cc3)C(=O)NC3CCC(C(=O)NC4CCCCC4N)C3)CCCC2)cc1 [Example 18, N^γ{N^α[N^α(4-(methyl)cynnamoyl)-1-aminocyclopentan-1-carboxy]-R-3[4-methyl)phenyl]alanyl}-(1R,3S)-3-aminocyclopentane-1-carboxylic-acid-N-((1S,2S)-2-aminocyclohexyl)amide hydrochloride salt] | –
– | CCCCN(CCCC)CCCNC(=O)[C@@H](Cc1ccccc1)NC(=O)C1(NC(=O)c2cc3ccccc3s2)CCCCC1 [Example 19, N^α[N^α(benzo[b]thiophen-2-yl-carbonyl)-1-aminocyclohexan-1-carboxy]-D-phenylalanine-N-{3-[bis(n-butyl)amino]propyl}amide] | 8.9
